For assay [1], the target named is T1, PfCRT variant D137N (Plasmodium falciparum, UniProt Q9N623, A220S/D137N/I356T/K76T/M74I/N326S/N75E/Q271E/R371I).
T1 sequence (Q9N623 1-424 M74I/N75E/K76T/D137N/A220S/Q271E/N326S/I356T/R371I): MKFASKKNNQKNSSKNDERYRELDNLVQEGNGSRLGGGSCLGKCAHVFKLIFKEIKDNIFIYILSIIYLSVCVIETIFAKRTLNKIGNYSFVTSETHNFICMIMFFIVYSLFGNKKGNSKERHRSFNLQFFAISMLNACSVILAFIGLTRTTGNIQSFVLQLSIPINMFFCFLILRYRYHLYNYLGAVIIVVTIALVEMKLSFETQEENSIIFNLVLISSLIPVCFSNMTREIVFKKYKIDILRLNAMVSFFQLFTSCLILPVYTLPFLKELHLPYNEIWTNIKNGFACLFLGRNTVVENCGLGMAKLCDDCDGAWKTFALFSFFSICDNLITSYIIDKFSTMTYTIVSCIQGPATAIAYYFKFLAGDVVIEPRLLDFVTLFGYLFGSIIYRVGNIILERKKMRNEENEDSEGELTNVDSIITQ
Briefly: CQ uptake assay, oocytes expressing D137N. Type of assay: cell-based. Here is the method:
(§1) Site-directed mutagenesis of PfCRT^Dd2 was performed as described using the megaprimer method with overlap extension[21],[54]. The primer pairs used are listed in Supplementary Table 6. Please note that a codon-optimized and oocyte-adapted version of PfCRT^Dd2 was used[22] (Supplementary Fig. 16). The resulting DNA fragment was cloned into the SP64T expression vector and verified by sequencing.
(§2) Oocytes were obtained as described previously. Briefly, adult (>2 years old) female X. laevis frogs (NASCO) were anesthetized in a cooled solution of ethyl 3-amino benzoate methanesulfonate (0.1%, w/v), followed by a surgical removal of parts of the ovary. The ovary lobes were carefully dissected and small pieces of oocytes were incubated in Ca^2+-free ND96 buffer (96 mM NaCl, 2 mM KCl, 1 mM MgCl2 buffered with 5 mM HEPES/NaOH, pH 7.5) supplemented with collagenase D (0.1%, w/v; Roche), BSA (0.5%, w/v), and 9 mm Na2HPO4 at 18 °C for 14-16 h while gentle shaking. After incubation, the oocytes were carefully washed several times with ND96 buffer (96 mM NaCl, 2 mM KCl, 1.8 mM CaCl2, 1 mM MgCl2 buffered with 5 mM HEPES/NaOH, pH 7.5) supplemented with 100 mg l^−1 gentamycin). Defolliculated and healthy-looking stage V-VI oocytes were manually selected for RNA microinjection. The RNA was generated as following: The codon-optimized sequences of PfCRT variants were cloned into the pSP64T expression vector. After vector linearization using the restriction endonucleases BamHI or SalI (New England Biolabs), transcription was performed using the in vitro SP6 mMessage mMachine Kit (Ambion)[34]. The obtained RNA was kept at −80 °C and diluted with nuclease-free water to a concentration of 0.6 μg μl^−1. Precision-bore glass capillary tubes (3.5-inch glass capillaries; Drummond Scientific Co.) were pulled on a vertical puller (P-87 Flaming/Brown micropipette puller, Sutter Instrument Co.), graduated, and placed on a microinjector (Nanoject II Auto-Nanoliter Injector, Drummond Scientific Co.). 50 nl of nuclease-free water alone (control oocytes) or 50 nl of 0.6 μg μl^−1 RNA were injected under stereomicroscopic control. Injected oocytes were incubated for 46–72 h at 18 °C with twice-daily buffer changes before usage in experiments.
(§3) Drug uptake assays were performed as described previously[21],[22],[24],[34]. […] The direction of radio-labeled drug transport is here from the mostly acidic extracellular solution (pH 4.5 or 6.0, as indicated) into the oocyte cytosol (pH ∼ 7.2), which corresponds to the efflux of drug from the acidic digestive vacuole (pH 5.2) into the parasite cytoplasm (pH 7.2). The topology of PfCRT in the oolemma is such that both the N- and C-terminus face the extracellular milieu[3],[22]. In the parasite, the N- and C-terminus face the lumen of the digestive vacuole. CQ uptake kinetics were performed by incubating oocytes in ND96 buffer adjusted to a pH of 4.5, 5.0, 5.5, or 6.0 and supplemented with 50 nM [^3H]CQ and one of 7 different CQ concentrations (10 µM, 50 µM, 100 µM, 200 µM, 300 µM, 400 µM, 500 µM CQ). The reaction was stopped at the 60 min time point, which is in the linear uptake range[22],[34] (Supplementary Fig. 17). For determination of the amount of drug uptake for each oocyte, the reaction medium was removed and the oocytes were washed three times with 2 ml of ice-cold ND96 buffer. Each oocyte was individually transferred to a scintillation vial containing 5% sodium dodecyl sulfate (200 μl) for lysis. The radioactivity of each sample was measured using a liquid scintillation analyzer Tri-Carb 4910 TR (PerkinElmer). Oocytes that were injected with water instead of RNA were analyzed in parallel, representing the uptake of a drug by diffusion and/or endogenous permeation pathways. The resulting value represents the “background“ level of drug accumulation in oocytes (in-depth discussion in[22]). […]

The target in assay [2] is T2, PfCRT variant F322A (Plasmodium falciparum, UniProt Q9N623, A220S/F322A/I356T/K76T/M74I/N326S/N75E/Q271E/R371I).
T2 sequence (Q9N623 1-424 M74I/N75E/K76T/A220S/Q271E/F322A/N326S/I356T/R371I): T1 sequence (Q9N623 1-424 M74I/N75E/K76T/D137N/A220S/Q271E/N326S/I356T/R371I) with N137D, F322A
Put plainly: CQ uptake assay, oocytes expressing F322A. The assay is classed as cell-based. Here is the method: as §1, §2, §3

Where [3] appears, read: D137N, 50 µM CQ, 1 h, mean ± SEM.
Where [4] appears, read: pH 4.5, single replicates, Fig 1d left.
The mark [5] stands for this setting: pH 6.0, single replicates, Fig 1d left.
Where [6] appears, read: F322A, 50 µM CQ, 1 h, mean ± SEM.

The values that follow come from article PMC10349806 (Nature Communications, 2023).

Positions count from the first letter of the chain named. “And” between values parts separate entries of the source, which are not always exact repeats. Equal values may be shown once.

For `CCN(CC)CCCC(C)Nc1ccnc2cc(Cl)ccc12` (stereo not drawn) [CQ, chloroquine], the results for the “Activity at pH 4.5” value in assay [1] (setting [3]) and in assay [2] (setting [6]) were 0.57 ± 0.14 pmol h-1 oocyte-1 and 0.72 ± 0.12 pmol h-1 oocyte-1, respectively. For the same compound, the “Activity at pH 6.0” value in assay [1] (setting [3]) is 0.95 ± 0.18 pmol h-1 oocyte-1; in assay [2] (setting [6]), 1.05 ± 0.12 pmol h-1 oocyte-1. The R-value in assay [1] (D137N, CQ transport at pH 4.5 / pH 6.0) came out at 0.59 ± 0.04; in assay [2] (F322A, CQ transport at pH 4.5 / pH 6.0), 0.68 ± 0.04. Moreover, the “D137N transport activity pH 4.5” value in assay [1] (setting [4]) is 0.77 pmol oocyte-1 h-1 and 0.37 pmol oocyte-1 h-1 and 0.63 pmol oocyte-1 h-1. In assay [1] (pH 4.5 vs pH 6.0, Fig 1d left), the “D137N R-value” is 0.64 and 0.53 and 0.59. Also, the “D137N transport activity pH 6.0” value in assay [1] (setting [5]) was 1.20 pmol oocyte-1 h-1 and 0.70 pmol oocyte-1 h-1 and 1.07 pmol oocyte-1 h-1. For the same compound, the “F322A transport activity pH 4.5” value in assay [2] (setting [4]) is 0.55 pmol oocyte-1 h-1 and 1.12 pmol oocyte-1 h-1 and 0.61 pmol oocyte-1 h-1 and 0.60 pmol oocyte-1 h-1. Further, in assay [2] (pH 4.5 vs pH 6.0, Fig 1d left), the “F322A R-value” is 0.73 and 0.78 and 0.63 and 0.59. Also, the “F322A transport activity pH 6.0” value in assay [2] (setting [5]) was 0.75 pmol oocyte-1 h-1 and 1.44 pmol oocyte-1 h-1 and 0.97 pmol oocyte-1 h-1 and 1.02 pmol oocyte-1 h-1.
